Experimental findings from patent US9663463B2, “3-azabicyclo[3.1.0]hexane derivative and use thereof for medical purpose” (priority 2013, dated 2017) are described below.

One data set relates to Mice serum protein. The experiment in a line: in vitro. It counts as in vitro ADME. Conditions: murine serum, equilibrium dialysis, 37° C., 5 to 6 hours. Here is the method:
The protein binding rate was determined by equilibrium dialysis method using the RED Device (8K MWCO, Rapid Equilibrium Dialysis Device, Thermo Scientific). The test substances that had been dissolved in DMSO were added to the serum that was collected from Crl: CD-1 (ICR) mice fasted overnight, so that the final concentration of DMSO became 1% (v/v). The serum to which the test substance had been added was added to the inner side of the dialysis membrane of the RED Device, and PBS (phosphate buffer saline, pH 7.4) containing 0.01% (v/v) Tween 80 was added to the outside in accordance with the method for using the RED Device and incubated at 37° C. for 5 to 6 hours with ellipsoidal shaking at 100 rpm so that the concentration of the unbound test substance in the serum and the concentration of the test substance in the PBS reached equilibrium. After the incubation was completed, the respective solutions were collected and stored under freezing at −60° C. or less as measurement samples. The proteins were removed from the measurement sample by adding acetonitrile in an amount of 5-fold or more of the amount of the internal standard substance and the serum sample, and the supernatants were measured by LC/MS/MS (liquid chromatograph—triple quadrupole mass spectrometer). The serum samples were measured after suitably diluting with distilled water as necessary.
A: the concentration of the test substance in the PBS sample
B: the concentration of the test substance in the serum sample

The nature of data set [1]: Plasma concentration of test substance at ED50 value (mice, LC/MS/MS). The format is in vivo. To be noted: at the ED50 value, at time of morphine administration, oral, linear regression from two doses. The procedure:
The concentration of the test substances in blood plasma was confirmed by using mice of the same week-old for the same dose as that used in the evaluation of the anti-pruritic effect. The test substance was administered by forced oral administration of an administration vehicle prepared in a similar manner to that in the evaluation of the anti-pruritic effect under a non-fasting condition. The blood samples were collected from the orbital venous plexus, within from 15 minutes after the administration of the test substance to after 180 minutes at the maximum, for multiple times including the timing at which the morphine solution was intracisternally administered, under inhalation anesthesia with diethyl ether or isoflurane using a heparin-treated hematocrit tubes. The collected blood samples were immediately ice-cooled and centrifuged at 1,800 g for 15 minutes at 4° C., and the plasma fractions were transferred and stored under freezing at −30° C. or less until measurement.
The concentrations of the test substances in plasma were measured using LC/MS/MS. Furthermore, as the measurement samples for LC/MS/MS, the supernatants obtained by adding an internal standard substance and acetonitrile in an amount within a range from 5-fold to 10-fold of the amount of the plasma to the collected plasma samples, and removing proteins therefrom, was used.

Data set [2] concerns pruritus mice model to which morphine had been intracisternally administered. The experiment in a line: Anti-pruritic effect in pruritus mice model to which morphine had been intracisternally administered. Conditions: oral administration, male ICR mice, inhibition of morphine-induced scratching behavior. It counts as in vivo. The procedure: As experimental animals, male ICR (Cr1j: CD1 (ICR): Charles River Japan) mice were used at 5 to 6-week old. The mice were placed in an acrylic cage (colorless and transparent, W 13.5 cm×D 9.5 cm×H 40 cm) for observing scratching behavior for 30 minutes or more to thereby allow the mice to get used to the observation environment, and the test substance solutions were forcedly orally administered to the test substance-administered groups. In addition, an administration vehicle was forcedly orally administered to the normal control group and the pathological control group. A necessary amount of the test substance was weighed and formed into a micropowder in an agate mortar, an administration vehicle, a 0.5 w/v % methyl cellulose 400 solution (Wako Pure Chemical Industries Ltd.) was added little by little, and preparation was performed by suspending or dissolving so as to give an intended concentration (from 0.025 to 3 mg/ml). The test doses were preset to suitable doses in the range in which the maximum dose is 30 mg/10 ml/kg.
Based on 30 minutes after the forced oral administration of the test substance as a criterion, the time for the intracisternal administration of morphine was suitably set up to 120 minutes after at the maximum, with consideration for the times of maximum plasma concentration of the respective test substances, in the case when the in vivo pharmacokinetics of the test substance had been confirmed in advance. Furthermore, saline was intracisternally administered to the normal control group, and the above-mentioned morphine solution was intracisternally administered to the pathogenic control group, so as to be 5 μL/site at the same time as that of the test substance group after the forced oral administration of the administration vehicle in either case.
The behavior of each mouse within 60 minutes from the intracisternal administration of the morphine solution or saline was recorded by a digital video camera that was installed immediately above the acrylic cage, the images were stored in a digital video recorder, and the number of frequency of the scratching behavior was measured. The number of frequency of the scratching behavior was measured with deeming a behavior in which the mouse raised its hindlimb, scratched the facial surface and the peripheral sites thereof, and got the hindlimb off from the body within 30 minutes from after the intracisternal administration of the morphine or saline as one time.
The anti-pruritic effect of each test substance was obtained as follows. As an inhibition ratio against the number of frequency of the scratching behavior on the pathological control group, the inhibition ratio (%) of the respective individuals and the average value thereof were calculated from the following formula, and an ED50 value was calculated based on the obtained inhibition ratio. Inhibition ratio of each individual (%)={1−(A−Vehicle)/(Morphine−Vehicle)}×100 Morphine: the average of the scratching number of the pathological control group Vehicle: the average of the scratching number of the normal control group A: the scratching number of each individual in the test substance-administered group

The target of a further data set is human μ-opioid receptor (Homo sapiens (Human), UniProt P35372). Put plainly: Antagonist activity test using [35S]-GTPγS bond as index using human μ-opioid receptor-expressing cell membrane. It counts as biochemical. To be noted: inhibition of DAMGO (10 nM)-stimulated [35S]-GTPγS binding, human μ-opioid receptor membrane; read-out: IC50. The procedure:
Cells in which a human μ-opioid receptor had been highly expressed was purchased from ChanTest (Cleveland). The cells were cultured in a carbon dioxide gas culturing apparatus by using a Ham's F12 culture medium (Invitrogen) containing 10% of fetal bovine blood serum, 1% of non-essential amino acids, 0.4 mg/ml of G418, 100 U/ml of penicillin and 100 μg/ml of streptomycin. The cultured cells were suspended by using a 0.25% trypsin 1 mM EDTA solution, the suspension was collected by using phosphate-buffered saline and centrifuged at 4° C. and 1,000 rpm for 10 minute to remove the supernatant, whereby a cell mass was obtained. […] Similar homogenization and centrifugation operations were repeated on the sediment, a homogenized buffer was added again to the obtained sediment, and the resultant was similarly homogenized to give a membrane fraction solution. The obtained membrane fraction solution was dispensed, rapidly frozen and stored under freezing at −70° C. or less until use. Furthermore, the protein concentration of the obtained membrane fraction solution was measured by using a BCA protein Assay Kit (Cat. 23227, Pierce) according to the protocol attached to the kit.
The cell membrane fraction solution in which the human μ-opioid receptor had expressed, which had been stored under freezing, was melted, a GTP assay buffer (100 mM NaCl, 5 mM MgCl2, 1 mM EDTA-containing 50 mM Hepes (pH 7.4)) was added thereto, and the resultant was homogenized repeatedly twice by using a Polytron homogenizer (SMT Multi Disperser PB95) under ice cooling at 12,000 rpm for 20 seconds to give a homogeneous solution, and the homogeneous solution was diluted to 0.036 mg/ml with a GTP assay buffer containing 18.2 μM of GDP (final concentration: […]). The dilution was incubated for 15 minutes or more under ice cooling until the reaction was initiated. […] [^35S]-GTPγS (NEG030X, Perkinelmer) was diluted with a GTP assay buffer so as to be 0.616 nM (final concentration: 0.08 nM). The resultant was diluted with a GTP assay buffer so as to be 200 nM (final concentration: 10 nM) by using [D-Ala^2, N-Me-Phe^4, Gly^5-ol]-enkephalinacetate (DAMGO, Sigma) as a μ-opioid receptor agonist. WGA Coated PVT SPA Beads (RPNQ0001, Perkinelmer) were added so as to be 20 mg/ml with a GTP assay buffer, and the resultant was suspended (final concentration: 1 mg/well). 4 μL/well of a test substance solution, 10 μL/well of a DAMGO solution, 26 μL/well of a [^35S]-GTPγS solution, […] of a suspension liquid of WGA Coated PVT SPA Beads, and 110 μL/well of the membrane fraction solution were added to a 96 well plate (1450-401, Perkinelmer), the top part of the plate was sealed, and a reaction was performed at 30° C. for 60 minutes under stirring with a plate shaker. For each measurement plate, a well to which DMSO had been added instead of the test substance, and a well to which DMSO had been added instead of the test substance and a GTP assay buffer had been added instead of the DAMGO solution were prepared. Furthermore, after the reaction was completed, the reactant was centrifuged at room temperature and 1,000 rpm for 3 minutes, and the radioactivity was measured by a microplate scintillation luminescence counter (Perkinelmer).
The IC50 value of the test substance was calculated by using Graphpad Prism 5.

Structures are written as SMILES.

Consider `CC[C@]1(c2cccc(NS(C)(=O)=O)c2)[C@@H]2CN(CC3(O)Cc4ccccc4C3)C[C@@H]21.CS(=O)(=O)O` [Comparative compound 1, N-(3-{(1R,5S,6r)-6-ethyl-3-[(2-hydroxy-2,3-dihydro-1H-inden-2-yl)methyl]-3-azabicyclo[3.1.0]hexan-6-yl}phenyl)methanesulfonamide methanesulfonate, reference compound], for which the Protein binding rate in the data set on Mice serum protein was 93.2%. The “Plasma concentration of test substance” value in data set [1] came to 157 nM. In data set [2], this compound showed a median effective dose (ED50) of 2.6 mg/kg. The 50% inhibitory concentration (IC50) on human μ-opioid receptor is 1.3 nM.
